Measurements: patent EP3381898A1, “SYMMETRICAL TRIS-ARYL-AMIDE DERIVATIVES AND THEIR USE AS ANTI-HEPARANASE” (priority 2017, dated 2018)

How the values were obtained:
FGF-2 = experiment: Real-Time Quantitative PCR of mRNA gene expression in HT1080 cells; format: cell-based, human; details: 24 h, 2.5 uM, mean value
Method: (§1) To evaluate the effect of heparanase inhibitors on the tumor transcription of genes encoding for proangiogenic factors, such as FGF1/2, VEGF, MMP-9, HSPE-1, the relative mRNA levels were analyzed by quantitative Real-Time Quantitative PCR.
(§2) To perform the assay, HT1080 (human fibrosarcoma) cells were cultured in complete medium containing 10%FCS (fetal calf serum). Cells were plated in 24-well plates and treated at fixed concentration (i.e., highest non-toxic concentration) of test compounds. After 24 h, cells were detached, collected and total RNA extracted by RNeasy Mini Kit (QIAGEN). Following reverse transcription step, FGF1/2, VEGF, MMP-9, HSPE-1 mRNA levels, were quantified by qPCR using the advanced Universal SYBR Green Supermix (Bio Rad) and ABI PRISM 7900HT Thermal Cycler System (Perkin Elmer), according to the manufacturer's instructions. Appropriate no-RT and non-template controls were included in each 96-well PCR reaction, and dissociation analysis was performed at the end of each run to confirm the specificity of the reaction. Relative levels of RNA were calculated using the ddCt method. Standard curve and sample data were run in duplicate. In Table 4 a mean value is reported.

VEGF = experiment: as above; format: cell-based, human; details: 24 h, 2.5 uM, mean value
Method: as §1, §2

FGF-1 = experiment: as above; format: cell-based, human; details: 24 h, 2.5 uM, mean value
Method: as §1, §2

HPSE-1 = experiment: as above; format: cell-based, human; details: 24 h, 2.5 uM, mean value
Method: as §1, §2

MMP-9 = experiment: as above; format: cell-based, human; details: 24 h, 2.5 uM, mean value
Method: as §1, §2

[1] = test system: U87MG (human glioblastoma astrocytoma); experiment: Cell adhesion assay on matrigel coated wells; format: cell-based; details: 2.5 µM, percent of adhesion with respect to the control (100%)
Method: (§3) Cell surface, non-integrin molecules such as heparan sulfate proteoglycans (HSPGs) may be involved in the regulation of early adhesive stages of cell-ECM interactions. A cell adhesion assay has been employed to determine if the newly designed heparanase inhibitors were able to interfere with adhesion properties of cancer cells.
(§4) HT1080 (human fibrosarcoma) and U87MG (human glioblastoma astrocytoma) cells were treated for 18-20 h with test compounds in complete medium supplemented with 10% FCS. Then cells were collected, washed in complete medium, and added to matrigel coated wells in triplicate, at previously identified optimal seeding density, and incubated at 37 °C in complete medium for times ranging from 15 minutes to 4h, according to the cell line. After incubation, the wells were washed three times with serum-free medium and the remaining firmly attached cells were stained with crystal-violet 0.1%. Optical density was measured at 560 nm by Victor 3 (Perkin-Elmer) plate analyzer. Each experiment was repeated three times.
(§5) Table 3. […] In Invasion assay, data were expressed as the percent invasion (range) with respect to cell migration through uncoated insert membrane. In Adhesion assay, data were expressed as the percent of adhesion with respect to the control (100%).

[2] = test system: HT1080 (human fibrosarcoma); experiment: Cell adhesion assay on matrigel coated wells; format: cell-based; details: 2.5 µM, percent of adhesion with respect to the control (100%)
Method: as §3, §4, §5

[3] = test system: U2OS (human osteosarcoma); experiment: SRB Cell Cytotoxicity Assay (cell proliferation, 72h); format: cell-based; details: 72 h, read-out: Concentration (µM) of test compounds at which the cell growth is inhibited by 50 %. U2OS
Method: (§6) SRB Cell Cytotoxicity Assay is an assay based upon the quantitative staining of cellular proteins by sulforhodamine B (SRB). This assay can be used for high-throughput drug screening ([…], Nature Protocol. 2006, 1, 112). Sulforhodamine B is an anionic aminoxanthene dye that forms an electrostatic complex with the basic amino acid residues of proteins under moderately acid conditions, which provides a sensitive linear response. […] Inhibition of cell proliferation was then measured by the classical colorimetric SRB Cell Cytotoxicity assay. Absorbance was measured by spectrophotometer at a wavelength of 510 nm and cell proliferation was determined as percent with respect to control cells (cells treated with the vehicle alone). EC50 values were then determined by GraphPad Prism.

[4] = test system: U87MG (human glioblastoma astrocytoma); experiment: as above; format: cell-based; details: U-87 MG, 72 h, read-out: Concentration (µM) of test compounds at which the cell growth is inhibited by 50 %. U87MG
Method: as §6

[5] = test system: HT1080 (human fibrosarcoma); experiment: as above; format: cell-based; details: HT-1080, 72 h, read-out: Concentration (µM) of test compounds at which the cell growth is inhibited by 50 %. HT1080
Method: as §6

Cn1cc(NC(=O)c2ccc(Oc3ccc(C(=O)Nc4cc(C(=O)Nc5cccc(CC(=O)N[C@@H](Cc6ccccc6)C(=O)O)c5)n(C)c4)cc3)cc2)cc1C(=O)Nc1cccc(CC(=O)N[C@@H](Cc2ccccc2)C(=O)O)c1 [Compound 36e, (2S,2'S)-2,2'-((2,2'-(((4,4'-((4,4'-Oxybis(benzoyl))bis(azanediyl))bis(1-methyl-1H-pyrrole-2,2'-carbonyl))bis(azanediyl))bis(3,1-phenylene))bis(acetyl))bis(azanediyl))bis(3-phenylpropanoic acid)]
Gene Expression (% mRNA vs. control) FGF-2 (FGF-2): ~ 64%
Gene Expression (% mRNA vs. control) VEGF (VEGF): ~ 51%
Gene Expression (% mRNA vs. control) FGF-1 (FGF-1): ~ 62%
Gene Expression (% mRNA vs. control) HPSE-1 (HPSE-1): ~ 88%
Gene Expression (% mRNA vs. control) MMP-9 (MMP-9): ~ 50%
Adhesion Assay (%) U87MG [1]: 73.0%
Adhesion Assay (%) HT1080 [2]: 91.2%
EC50 [3]: > 2.5 µM
EC50 [4]: > 2.5 µM
EC50 [5]: > 2.5 µM
